In patent publication US20070049538A1, “METHODS FOR USING CUCURBITACIN COMPOUNDS” (SOUTH DAKOTA STATE UNIVERSITY, priority 2005, published 2007):
“Also recorded” adds a separate entry of the source.

Assays:
hyaluronidase = hyaluronidase (Bos taurus, UniProt Q2YDK3); test: Anti-Hyaluronidase Assay; type: biochemical; details: up to 71.68 mM
Source text: Cucurbitacin anti-inflammatory activity was monitored by the Anti-Hyaluronidase Assay (Facino et al., Il Farmaco 48: 1447-1461, 1993 and Linker, A., Hyaluronidase. In: Methods of enzymatic analysis. Vol. 4., Bergmeyer, H. U. (Editor), Verlag Chemie GmbH, Berlin, 256-262, 1984). This assay was validated using the standard compound phenylbutazone.

[1] = in vivo; cited from earlier work
HSC-T6 cells [2] = test: Serum-driven HSC-T6 proliferation, experiment 1 (4 h challenge, two days drug-free growth); type: cell-based, rat; details: for EC50: HSC-T6, 4 h challenge, then two days drug-free media
[3] = ABTS*+ Radical Cation Decolorization Assay; details: at 50 μM, 100 μM and 1.8 mM, up to 2 hours
Experimental: Cucurbitacin B activity was monitored at 50 μM, 100 μM, and 1.8 mM. The time interval was expanded up to 2 hours in case cucurbitacin B was reacting slowly.

[4] = test system: lipid peroxidation of microsomal suspension; test: Microsomal Lipid Peroxidation Assay; type: biochemical; details: at 0.1 mM, both chemical and enzymatic assays
Experimental: Cucurbitacin anti-lipid peroxidation was studied by the Microsomal Lipid Peroxidation Assay (Engineer et al., Biochemical Pharmacology 38(8): 1279-1285, 1989). Lipid peroxidation of microsomal suspension was induced both enzymatically and chemically and validated on the standard compound quercetin. […] Activity of 3 cucurbitacin analogs, B, E, and E-Me-ether was monitored at 0.1 mM indicating no inhibition in either the chemical or enzymatic assay.

HepG2 cells = test: cells; details: for EC50: read-out: EC50 cytoprotection, Table 7, HepG2 against CCl4 toxicity, estimated
Source text: Experimental conditions were standardized on silybin. […]
The ratio of IC50-to-EC50 (hereafter T/A) is also indicated in this table, which gives the margin between toxic and cytoprotective concentrations.

[5] = DPPH* Stable Free Radical Scavenging Assay; details: at 50 μM
Experimental: Cucurbitacin antioxidant activity was studied first by the DPPH* Stable Free Radical Scavenging Assay (Cotelle et al., Free radical Biology & Medicine 20(1): 35-43, 1996). Experimental conditions were optimized on the standard compound ascorbic acid. Data indicated 30% activity at 50 μM concentration, and 100% activity at 100 μM for ascorbic acid. While the original assay required 10 minutes incubation time for the reaction to occur, this time was increased up to 30 minutes in case cucurbitacin were reacting slower than other reagents.

HSC-T6 cells [6] = test: Serum-driven HSC-T6 proliferation, experiment 2 (24 h, starved/quiescent cells); type: cell-based, rat; details: HSC-T6, 24 h, starved (quiescent) cells; read-out: Experiment 2 EC50
Experimental: To overcome this problem, the amount of incubation time was increased to 24 h, and cucurbitacin activity measured on starved (Exp. 2) or proliferative (Exp. 3) cells (Table 8). Cells turned quiescent when serum was not supplemented for one day (Exp. 2). Activity of a few compounds was monitored on quiescent cells, and their activity compared to the ones measured on proliferating cells (Exp. 3).
We established several experimental conditions such as 4 hours of incubation time with cucurbitacin, and 2 day cell incubation with fresh media after challenging with cucurbitacin (Exp. 1). Other experiments involved addition of cucurbitacin for 24 hours over starved cells (Exp. 2) vs. proliferating cells (Exp. 3), and one day incubation of cells with fresh media after challenge. The 4 hour incubation period with cucurbitacin triggered anti-proliferation effect. This effect, however, was hindered by a second cycle of cell proliferation during the two-day cell growth period (see silybin, E and I glucosides, and for I-nPr). […] Because of that, the challenge time was increased to 24 hours (Exp. 2 and 3).
In experiment 3, only 40% of the cells divided. The ratio of EC50 values for exp. 2 and exp. 3 varied between 3.6 and 12.7. This may indicate differential cytotoxicity of silybin and cucurbitacin analogs over quiescent and active stellate cells. In other words, compounds show higher anti-proliferative activity on active cells than on quiescent cells.

Sequence of hyaluronidase (Q2YDK3 entry or part of it): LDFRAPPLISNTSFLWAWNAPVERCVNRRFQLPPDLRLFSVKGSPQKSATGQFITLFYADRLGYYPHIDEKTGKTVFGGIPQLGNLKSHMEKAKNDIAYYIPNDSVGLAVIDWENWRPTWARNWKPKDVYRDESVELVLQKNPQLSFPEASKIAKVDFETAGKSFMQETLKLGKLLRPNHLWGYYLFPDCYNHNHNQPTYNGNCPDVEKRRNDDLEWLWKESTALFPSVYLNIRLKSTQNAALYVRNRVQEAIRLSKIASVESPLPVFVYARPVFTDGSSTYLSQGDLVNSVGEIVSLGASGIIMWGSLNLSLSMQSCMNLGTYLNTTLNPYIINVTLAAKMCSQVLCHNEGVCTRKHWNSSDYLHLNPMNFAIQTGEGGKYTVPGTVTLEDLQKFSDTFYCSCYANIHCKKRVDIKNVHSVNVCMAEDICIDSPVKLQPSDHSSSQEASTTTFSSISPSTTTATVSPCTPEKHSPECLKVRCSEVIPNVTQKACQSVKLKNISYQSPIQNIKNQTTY

Row | Molecule | anti-hyaluronidase activity (hyaluronidase) | protective and preventive activity [1] | EC50 (HSC-T6 cells [2]) | ABTS activity [3] | inhibition of lipid peroxidation [4] | cytoprotection on HepG2 cells (HepG2 cells; at 6.25% of IC50, against CCl4) | cytoprotection on HepG2 cells (HepG2 cells; at 12.5% of IC50, against CCl4) | cytoprotection on HepG2 cells (HepG2 cells; at 20% of IC50, against CCl4) | cytoprotection on HepG2 cells (HepG2 cells; at 50% of IC50, against CCl4) | EC50 (HepG2 cells) | DPPH activity [5] | EC50 (HSC-T6 cells [6]) | anti-proliferation activity (HSC-T6 cells [2]; Experiment 1, FIG. 7, 150 μM) | Experiment 1 anti-proliferation activity (HSC-T6 cells [2]; measured at 100 μM)
1 | CC(=O)OC(C)(C)/C=C/C(=O)[C@](C)(O)[C@H]1[C@H](O)C[C@@]2(C)[C@@H]3CC=C4[C@H](C[C@H](O)C(=O)C4(C)C)[C@]3(C)C(=O)C[C@]12C [B, cucurbitacin B] | no activity; also recorded: did not demonstrate anti-hyaluronidase activity | significantly reducing serum enzymes level, steatosis, inflammation, and experimental cholestasis | 1.18 µM | No activity was observed | no inhibition | 12.45 ± 1.11 | 25.25 ± 1.36 | 34.92 ± 2.76 | 60.01 ± 0.80 | 10.5 µM | did not indicate any activity |  |  | 
2 | CC(=O)OC(C)(C)/C=C/C(=O)[C@](C)(O)[C@H]1[C@H](O)C[C@@]2(C)[C@@H]3CC=C4[C@@H](C=C(O[C@@H]5O[C@H](CO)[C@@H](O)[C@H](O)[C@H]5O)C(=O)C4(C)C)[C@]3(C)C(=O)C[C@]12C [E-Gluc, cucurbitacin E glucoside] |  |  |  |  |  | −2.36 ± 1.08 | 17.96 ± 1.14 | 49.44 ± 0.29 | 33.92 ± 2.92 | 45.3 µM |  | 20 µM | about 38% | ˜46%^a^
3 | Cucurbitacin E-Me ether |  |  | 3.05 µM |  | no inhibition |  |  |  |  | 2.4 µM |  |  |  | 
4 | cucurbitacin E |  | significantly reducing serum enzymes level, steatosis, inflammation, and experimental cholestasis | 0.86 µM |  | no inhibition | 12.41 ± 0.78 | 21.72 ± 0.75 | 49.21 ± 1.73 | 80.55 ± 6.80 | 3.2 µM |  |  |  | 
